# Test results published in patent publication US11090304B2 (Amgen Inc., priority 2018, dated 2021).
# Biological target: GDP-bound KRAS protein (aa 1-169), containing both G12C and C118A amino acid substitutions (Homo sapiens, UniProt P01116, C118A/G12C)
# Test: Coupled nucleotide exchange assay (SOS-mediated, AlphaScreen)
# Type: biochemical
# Conditions: 5 min compound pre-incubation
# Sequence of GDP-bound KRAS protein (aa 1-169), containing both G12C and C118A amino acid substitutions (P01116 1-169 isoform P01116-2 G12C/C118A): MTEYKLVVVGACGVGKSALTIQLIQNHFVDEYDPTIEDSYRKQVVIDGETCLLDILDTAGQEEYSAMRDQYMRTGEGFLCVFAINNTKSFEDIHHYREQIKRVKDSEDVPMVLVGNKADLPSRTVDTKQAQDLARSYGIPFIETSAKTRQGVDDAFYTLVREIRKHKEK
row,Compound,Coupled exchange IC50 (5 min)
1,"C=CC(=O)N1CCN(c2nc(=O)n(-c3nccc4c3CCCC4)c3nc(-c4c(O)cccc4F)c(Cl)cc23)[C@@H](C)C1 [Example 55-25, 6-chloro-7-(2-fluoro-6-hydroxyphenyl)-4-((2S)-2-methyl-4-(2-propenoyl)-1-piperazinyl)-1-(5,6,7,8-tetrahydro-1-isoquinolinyl)pyrido[2,3-d]pyrimidin-2(1H)-one]",2.29 | nda μM
2,"C=CC(=O)N1CCN(c2nc(=O)n(-c3c(CC)cccc3CC)c3nc(-c4cccnc4)c(Cl)cc23)[C@@H](C)C1 [Example 55-28, 6-chloro-1-(2,6-diethylphenyl)-4-((2S)-2-methyl-4-(2-propenoyl)-1-piperazinyl)-7-(3-pyridinyl)pyrido[2,3-d]pyrimidin-2(1H)-one]",12.9 | nda μM
3,"C=CC(=O)N1CCN(c2nc(=O)n(-c3c(CC)cccc3CC)c3nc(-c4cccnc4C)c(Cl)cc23)[C@@H](C)C1 [Example 55-29, 6-chloro-1-(2,6-diethylphenyl)-4-((2S)-2-methyl-4-(2-propenoyl)-1-piperazinyl)-7-(2-methyl-3-pyridinyl)pyrido[2,3-d]pyrimidin-2(1H)-one]",7.19 | nda μM
4,"C=CC(=O)N1CCN(c2nc(=O)n(Cc3ccc(OC)cc3)c3nc(-c4c(O)cccc4F)c(Cl)cc23)[C@@H](C)C1 [Example 55-32, 6-chloro-7-(2-fluoro-6-hydroxyphenyl)-1-(4-methoxybenzyl)-4-((2S)-2-methyl-4-(2-propenoyl)-1-piperazinyl)pyrido[2,3-d]pyrimidin-2(1H)-one]",3.07 | nda μM
5,"C=CC(=O)N1CCN(c2nc(=O)n(C)c3nc(-c4ccccc4F)c(Cl)cc23)[C@@H](C)C1 [Example 55-33, 6-chloro-7-(2-fluorophenyl)-1-methyl-4-((2S)-2-methyl-4-(2-propenoyl)-1-piperazinyl)pyrido[2,3-d]pyrimidin-2(1H)-one]",45.8 | nda μM
6,"C=CC(=O)N1CCN(c2nc(=O)n(C)c3nc(-c4c(O)cccc4F)c(Cl)cc23)[C@@H](C)C1 [Example 55-34, 6-chloro-7-(2-fluoro-6-hydroxyphenyl)-1-methyl-4-((2S)-2-methyl-4-(2-propenoyl)-1-piperazinyl)pyrido[2,3-d]pyrimidin-2(1H)-one]",20.8 | nda μM
7,"C=CC(=O)N1CCN(c2nc(=O)n(C)c3nc(-c4c(C)ccc5[nH]ncc45)c(Cl)cc23)[C@@H](C)C1 [Example 55-36, 6-chloro-1-methyl-7-(5-methyl-1H-indazol-4-yl)-4-((2S)-2-methyl-4-(2-propenoyl)-1-piperazinyl)pyrido[2,3-d]pyrimidin-2(1H)-one]",38.6 | nda μM
8,"C=CC(=O)N1CCN(c2nc(=O)n(-c3c(C)cnn3C(C)(C)C)c3nc(-c4ccccc4F)c(Cl)cc23)[C@@H](C)C1 [Example 55-38, 6-chloro-7-(2-fluorophenyl)-1-(4-methyl-1-(2-methyl-2-propanyl)-1H-pyrazol-5-yl)-4-((2S)-2-methyl-4-(2-propenoyl)-1-piperazinyl)pyrido[2.3-d]pyrimidin-2(1H)-one]",0.377 | nda μM
9,"C=CC(=O)N1CCN(c2nc(=O)n(-c3cn[nH]c3C(C)C)c3nc(-c4ccccc4F)c(Cl)cc23)[C@@H](C)C1 [Example 55-42, 6-chloro-7-(2-fluorophenyl)-4-((2S)-2-methyl-4-(2-propenoyl)-1-piperazinyl)-1-(5-(2-propanyl)-1H-pyrazol-4-yl)pyrido[2,3-d]pyrimidin-2(1H)-one]",0.351 | nda μM
10,"C=CC(=O)N1CCN(c2nc(=O)n(-c3scnc3C3CC3)c3nc(-c4c(O)cccc4F)c(Cl)cc23)[C@@H](C)C1 [Example 56-3, 6-chloro-1-(4-cyclopropyl-1,3-thiazol-5-yl)-7-(2-fluoro-6-hydroxyphenyl)-4-((2S)-2-methyl-4-(2-propenoyl)-1-piperazinyl)pyrido[2,3-d]pyrimidin-2(1H)-one]",3.85 | nda μM
11,"C=CC(=O)N1CCN(c2nc(=O)n(-c3scnc3C3CC3)c3nc(-c4ccccc4F)c(Cl)cc23)[C@@H](C)C1 [Example 56-4, 6-chloro-1-(4-cyclopropyl-1,3-thiazol-5-yl)-7-(2-fluorophenyl)-4-((2S)-2-methyl-4-(2-propenoyl)-1-piperazinyl)pyrido[2,3-d]pyrimidin-2(1H)-one]",5.32 | nda μM
12,"C=CC(=O)N1CCN(c2nc(=O)n(-c3ccccc3C(C)C)c3nc(-c4cccc(OC(F)F)c4)c(Cl)cc23)[C@@H](C)C1 [Example 56-8, 6-chloro-7-(3-(difIuoromethoxy)phenyl)-4-((2S)-2-methyl-4-(2-propenoyl)-1-piperazinyl)-1-(2-(2-propanyl)phenyl)pyrido[2,3-d]pyrimidin-2(1H)-one]",1.56 | nda μM
13,"C=CC(=O)N1CCN(c2nc(=O)n(-c3ccccc3C(C)C)c3nc(-c4c(O)cccc4F)c(F)cc23)[C@@H](C)C1 [Example 57-6, 6-fluoro-7-(2-fluoro-6-hydroxyphenyl)-4-((2S)-2-methyl-4-(2-propenoyl)-1-piperazinyl)-1-(2-(2-propanyl)phenyl)pyrido[2,3-d]pyrimidin-2(1H)-one]",1.67 | nda μM
14,"C=CC(=O)N1CCN(c2nc(=O)n(-c3c(C)ccnc3CC)c3nc(-c4ccccc4F)c(F)cc23)[C@@H](C)C1 [Example 57-16, 1-(2-ethyl-4-methyl-3-pyridinyl)-6-fluoro-7-(2-fluorophenyl)-4-((2S)-2-methyl-4-(2-propenoyl)-1-piperazinyl)pyrido[2,3-d]pyrimidin-2(1H)-one]",3.79 | nda μM
15,"C=CC(=O)N1CCN(c2nc(=O)n(-c3c(C)ccnc3C3CC3)c3nc(-c4ccccc4F)c(F)cc23)[C@@H](C)C1 [Example 57-18, 1-(2-cyclopropyl-4-methyl-3-pyridinyl)-6-fluoro-7-(2-fluorophenyl)-4-((2S)-2-methyl-4-(2-propenoyl)-1-piperazinyl)pyrido[2,3-d]pyrimidin-2(1H)-one]",1.73 | nda μM
16,"C=CC(=O)N1CCN(c2nc(=O)n(-c3ccccc3C)c3nc(OCCCC)c(Cl)cc23)[C@@H](C)C1 [Example 60-13, 7-butoxy-6-chloro-1-(2-methylphenyl)-4-((2S)-2-methyl-4-(2-propenoyl)-1-piperazinyl)pyrido[2,3-d]pyrimidin-2(1H)-one]",85 | nda μM

# Next, values leading:
row,Coupled exchange IC50 (5 min),Compound
1,2.45 | nda μM,"C=CC(=O)N1CCN(c2nc(=O)n(-c3c(C)cccc3C3CC3)c3nc(-c4ccccc4F)c(F)cc23)[C@@H](C)C1 [Example 58-14, 1-(2-cyclopropyl-6-methylphenyl)-6-fluoro-7-(2-fluorophenyl)-4-((2S)-2-methyl-4-(2-propenoyl)-1-piperazinyl)pyrido[2,3-d]pyrimidin-2(1H)-one]"
2,1.68 | nda μM,"C=CC(=O)N1CCN(c2nc(=O)n(-c3ccccc3C(C)(C)C)c3nc(-c4ccccc4F)c(F)cc23)[C@@H](C)C1 [Example 58-17, 6-fluoro-7-(2-fluorophenyl)-1-(2-(2-methyl-2-propanyl)phenyl)-4-((2S)-2-methyl-4-(2-propenoyl)-1-piperazinyl)pyrido[2,3-d]pyrimidin-2(1H)-one]"
3,1.96 | nda μM,"C=CC(=O)N1CCN(c2nc(=O)n(-c3c(C4CC4)ccnc3C)c3nc(-c4ccccc4F)c(F)cc23)[C@@H](C)C1 [Example 58-20, 1-(4-cyclopropyl-2-methyl-3-pyridinyl)-6-fluoro-7-(2-fluorophenyl)-4-((2S)-2-methyl-4-(2-propenoyl)-1-piperazinyl)pyrido[2,3-d]pyrimidin-2(1H)-one]"
4,17.5 | nda μM,"C=CC(=O)N1CCN(c2nc(=O)n(-c3c(C)ccnc3C(C)C)c3nc(Cl)c(F)cc23)[C@@H](C)C1 [Example 58-21, 7-chloro-6-fluoro-1-(4-methyl-2-(2-propanyl)-3-pyridinyl)-4-((2S)-2-methyl-4-(2-propenoyl)-4-piperazinyl)pyrido[2,3-d]pyrimidin-2(1H)-one]"
5,2.71 | nda μM,"C=CC(=O)N1CCN(c2nc(=O)n(-c3c(CC)ncnc3CC)c3nc(-c4ccccc4F)c(F)cc23)[C@@H](C)C1 [Example 58-22, 1-(4,6-diethyl-5-pyrimidinyl)-6-fluoro-7-(2-fluorophenyl)-4-((2S)-2-methyl-4-(2-propenoyl)-1-piperazinyl)pyrido[2,3-d]pyrimidin-2(1H)-one]"
6,2.98 | nda μM,"C=CC(=O)N1CCN(c2nc(=O)n(-c3ccccc3C3(C(F)(F)F)CC3)c3nc(-c4c(O)cccc4F)c(F)cc23)[C@@H](C)C1 [Example 59-1, 6-Fluoro-7-(2-fluoro-6-hydroxyphenyl)-4-((2S)-2-methyl-4-(2-propenoyl)-1-piperazinyl)-1-(2-(1-(trifluoromethyl)cyclopropyl)phenyl)pyrido[2,3-d]pyrimidin-2(1H)-one]"
7,0.501 | nda μM,"C=CC(=O)N1CCN(c2nc(=O)n(-c3c(C4CC4)ncnc3C3CC3)c3nc(-c4ccccc4F)c(F)cc23)[C@@H](C)C1 [Example 59-5, 1-(4,6-dicyclopropyl-5-pyrimidinyl)-6-fluoro-7-(2-fluorophenyl)-4-((2S)-2-methyl-4-(2-propenoyl)-1-piperazinyl)pyrido[2,3-d]pyrimidin-2(1H)-one]"
8,22.2 | nda μM,"C=CC(=O)N1CCN(c2nc(=O)n(-c3ccccc3C)c3nc(Cl)c(Cl)cc23)[C@@H](C)C1 [Example 60-12, 6,7-dichloro-1-(2-methylphenyl)-4-((2S)-2-methyl-4-(2-propenoyl)-1-piperazinyl)pyrido[2,3-d]pyrimidin-2(1H)-one]"

# Same assay, conditions: 2 h compound pre-incubation
row,Coupled exchange IC50 (2 h),Compound
1,nda | 7.62 μM,"C=CC(=O)N1CCN(c2nc(=O)n(CC3(C(F)(F)F)CC3)c3nc(Cl)c(Cl)cc23)CC1 [Example 60-2, 6,7-dichloro-4-(4-(2-propenoyl)-1-piperazinyl)-1-((1-(trifluoromethyl)cyclopropyl)methyl)pyrido[2,3-d]pyrimidin-2(1H)-one]"
2,nda | 26.9 μM,C=CC(=O)N1CCN(c2nc(=O)n(Cc3ccccn3)c3nc(-c4c(O)cccc4F)c(Cl)cc23)CC1 [Example 60-7]
